Data taken from PMC12503906, “Novel Pyrazolo [1,5‐a]−1,3,5‐Triazine Derivatives as CDK7 Inhibitors: Synthesis and Biological Insights in Pancreatic Ductal Adenocarcinoma Models” (Chemmedchem, 2025).
Like-named read-outs stand apart in the source and are kept apart here.

Legend:
PATU‐T [1] = test: SRB chemosensitivity assay, PATU‐T cells; format: cell-based; details: read-out: IC50 PATU‐T
Description: (§1) Three lines of immortalized PDAC cells were selected as representative phenotypes: mesenchymal (PATU‐T), quasimesenchymal (PANC‐1), and an epithelial clone of SUIT 2 cells (SUIT 2.28). Cells were cultured in noncoated T‐75 and T‐25 flasks under adherent conditions, using 1× DMEM (Gibco, 41,966,029) for PATU‐T and RPMI (Gibco, 21,875,034) for SUIT 2.28 and PANC‐1, both supplemented with 10% NBCS and 1% P/S. Additional employed models were the PDAC3 cells, a primary cell culture, the PSCs, which were immortalized healthy pancreatic cells, and the PATU‐T‐GR, which was a gemcitabine resistant model of PATU‐T. PDAC3 and PSCs were cultivated using complete RPMI medium, while PATU‐T‐GR required complete DMEM medium. For seeding, cells were detached with Trypsin‐EDTA (0.05%) (GibcoTM, 25,300–096) and were consequently counted using the Automated Cell Counter (Luna‐II, Westburg). Cells were then plated on 96‐ or 6‐well plates depending on the planned experiment.
(§2) The Sulforhodamine B (SRB) chemosensitivity assay was used to measure cytotoxicity and cell proliferation post drug treatment. At day 0, 3–6 × 10^3 cells were seeded in a 96‐well plate, depending on the cell line. At day 1, cells were attached and ready to be treated. For the calculation of the IC50, drug dilutions for the compounds 1b, 1c, 1d, 1e, 1g, 1hr, 1i, 1j, and LDC4297 (MedChemExpress, HY‐12,653) were prepared in dilution trays and eight different concentrations were included. These were added in triplicates to the cells, which were then incubated for […] at 37 °C in 5% CO2. During day 1, the control plate was fixed with 50% Trichloroacetic acid (TCA), as intended to be the baseline plate used for the normalization of the data. 72 h post‐treatment, the cells were fixed with TCA, and placed at 4 °C for about 2 h. The plates were then washed with distillated water and left to dry under the hood with ventilation. Subsequently, plates were stained with 0.4% SRB for 15 min and washed with 1% acetic acid to remove excess stain. Once dried again, the protein‐bound SRB was dissolved in 10 mM TRIS, and the plates were placed on a shaker for 10 min per plate. Lastly, the absorbance was measured at 492 nm with a spectrophotometer (Synergy HT, BioTek). The absorbance data obtained were normalized to the day 1 control, and the percentage of cell growth in relation to the control was calculated using the following formula. (1) %Cell growth=Mean OD treatment−Mean OD day0/Mean OD control−Mean OD day0×100
(§3) The percentage of proliferation and their respective standard deviations were used to perform statistical analysis in GraphPad Prism software v 10 (GraphPad Software, San Diego, CA). Data were normalized to the day 0 control and to their own untreated 72 h control. These were transformed into logarithmic data, and log(inhibitor) versus response analysis was performed for obtaining the IC50 values per cell lines. Each experiment was conducted in triplicates.

SUIT 2.28 = test: SRB chemosensitivity assay, SUIT 2.28 cells; format: cell-based; details: read-out: IC50 SUIT 2.28
Description: as §1, §2, §3

PANC‐1 = test: SRB chemosensitivity assay, PANC‐1 cells; format: cell-based; details: Homo sapiens, read-out: IC50 PANC‐1
Description: as §1, §2, §3

PATU‐T [2] = test: Wound healing assay, PATU‐T; format: cell-based; details: 1 × IC50 and 4 × IC50, 4 to 24 h
Description: The wound healing assay was used to test the migratory ability of the selected cells post‐treatment. Cells (5 × 10^4 /well) were seeded on 96‐well. After 24 h, cells reached the optimal 100% confluency, and an artificial wound was created with a 96‐well Pintool Scratcher. The cells were immediately washed with complete medium, in order to remove cell debris after the scratch, and images of the wells were captured at time 0 h, right before the addition of the treatment. Each drug (1b and 1g) was previously diluted in the respective medium at two different concentrations: 1 × IC50 and 4 × IC50 (according to the cell specific IC50 value) and were then added to the cells. Images were then taken at timepoints 4, 8, 20, and 24 h using the Leica microscope with a JAI TMC‐137 camera to assess wound closure. The images were analyzed using the Universal Grab 6.3 software (DCILabs), and the obtained data were used to determine the percentage of migration of the cells, using the following formula. (2) % Migration=Mean width of the wound atT=0−Mean width of the wound atT=X/Mean width of the wound atT=0×100

CDK7 [3] = details: selective inhibition of CDK7, quoted in introduction; cited from earlier work
PDAC cell lines = test: SRB chemosensitivity assay, ranges over several PDAC cell lines; format: cell-based; details: range across the different cell lines
Description: as §1, with “Cells were then plated on 96‐ or 6‐well plates depending on the planned experiment.” left out
The Sulforhodamine B (SRB) chemosensitivity assay was used to measure cytotoxicity and cell proliferation post drug treatment. […] At day 1, cells were attached and ready to be treated. […] Lastly, the absorbance was measured at 492 nm with a spectrophotometer (Synergy HT, BioTek). The absorbance data obtained were normalized to the day 1 control, and the percentage of cell growth in relation to the control was calculated using the following formula. […]

PSC = test: SRB chemosensitivity assay, pancreatic stellate cells (PSC); format: cell-based; details: Fibroblast; SRB, nontumorous immortalized pancreatic fibroblasts, average ± SEM, triplicate; read-out: IC50 PSC
Description: as §1
as §2, with “The plates were then washed with distillated water and left to dry under the hood with ventilation. Subsequently, plates were stained with 0.4% SRB for 15 min and washed with 1% acetic acid to remove excess stain. Once dried again, the protein‐bound SRB was dissolved in 10 mM TRIS, and the plates were placed on a shaker for 10 min per plate.” left out, “(1) %Cell growth=Mean OD treatment−Mean OD day0/Mean OD control−Mean OD day0×100” left out

PATU‐T GR = test: SRB chemosensitivity assay, gemcitabine resistant PATU‐T GR cells; format: cell-based; details: SRB, gemcitabine resistant PATU‐T GR, average ± SEM, triplicate; read-out: IC50 PATU‐GR
Description: as §1, §2
The percentage of proliferation and their respective standard deviations were used to perform statistical analysis in GraphPad Prism software v 10 (GraphPad Software, San Diego, CA). Data were normalized to the day 0 control and to their own untreated 72 h control. […]

PDAC3 = test: SRB chemosensitivity assay, primary PDAC3 cells; format: cell-based; details: PDAC-3, SRB, primary cell line, average ± SEM, triplicate; read-out: IC50 PDAC3
Description: as §1, §2, §3

[4] = target: T1, phosphorylated CDK7 (p‐CDK7) (Homo sapiens, UniProt P50613); test: Phospho‐CDK7 (Thr170) cell‐based ELISA, SUIT 2.28; set-up: two PDAC preclinical models (SUIT 2.28 and PDAC3); endogenous in cells; host or cells: SUIT 2.28; details: SUIT 2.28, 4 × IC50, ELISA
T1 sequence (P50613 2-346 limits assumed): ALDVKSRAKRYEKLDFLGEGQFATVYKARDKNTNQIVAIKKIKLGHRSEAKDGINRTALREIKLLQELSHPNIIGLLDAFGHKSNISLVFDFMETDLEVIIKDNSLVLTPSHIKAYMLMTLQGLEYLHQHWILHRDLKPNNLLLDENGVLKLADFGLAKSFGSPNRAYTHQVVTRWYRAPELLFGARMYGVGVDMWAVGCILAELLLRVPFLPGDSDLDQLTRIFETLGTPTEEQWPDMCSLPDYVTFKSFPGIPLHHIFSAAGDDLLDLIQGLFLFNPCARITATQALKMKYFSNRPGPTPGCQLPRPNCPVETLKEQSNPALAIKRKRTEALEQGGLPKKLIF
T1 sequence (P51946 whole entry partner): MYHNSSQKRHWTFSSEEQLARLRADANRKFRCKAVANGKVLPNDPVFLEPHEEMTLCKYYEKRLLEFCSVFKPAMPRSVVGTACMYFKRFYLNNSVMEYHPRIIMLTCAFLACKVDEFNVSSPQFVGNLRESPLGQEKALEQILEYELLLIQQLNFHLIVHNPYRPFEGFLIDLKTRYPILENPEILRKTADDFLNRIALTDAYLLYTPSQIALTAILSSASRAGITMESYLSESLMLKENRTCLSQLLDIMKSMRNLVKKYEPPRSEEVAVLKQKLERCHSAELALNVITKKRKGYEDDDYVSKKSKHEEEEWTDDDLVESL
T1 sequence (P51948 whole entry partner): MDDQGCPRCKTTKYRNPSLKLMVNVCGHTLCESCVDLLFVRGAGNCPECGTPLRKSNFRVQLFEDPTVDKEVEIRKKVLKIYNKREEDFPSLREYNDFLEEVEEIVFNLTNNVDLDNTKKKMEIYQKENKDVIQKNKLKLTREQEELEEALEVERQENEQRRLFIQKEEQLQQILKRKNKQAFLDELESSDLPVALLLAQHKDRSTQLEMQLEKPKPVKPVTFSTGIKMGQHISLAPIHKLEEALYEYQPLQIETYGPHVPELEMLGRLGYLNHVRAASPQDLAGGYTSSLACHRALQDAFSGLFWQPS
Description: (§4) To detect CDK7 and phospho‐CDK7 levels at Thr170 residue after treatment, an enzyme‐linked immunosorbent assay (Biomatik, Phospho‐CDK7 (Thr170) Colorimetric Cell‐Based ELISA Kit, Cat# EKA51274) was performed according to the manufacturer's protocols. […] The absorbance was read at 450 nm using a microplate reader.

[5] = target: T1, phosphorylated CDK7 (p‐CDK7); test: Phospho‐CDK7 (Thr170) cell‐based ELISA, PDAC3; set-up: endogenous in cells; host or cells: PDAC3 primary cells; details: PDAC3, 4 × IC50, ELISA
Description: as §4

CDK7 [6] = target: CDK7 (Homo sapiens, UniProt P50613); test: In vitro CDK7 enzyme inhibition assay (ADP‐Glo); format: biochemical; set-up: purchased Promega Corporation VA7402; details: ADP‐Glo assay, mean of triplicate experiments; read-out: CDK7 inhibition activity IC50
Sequence of CDK7 (Homo sapiens, UniProt P50613) (P50613 whole entry): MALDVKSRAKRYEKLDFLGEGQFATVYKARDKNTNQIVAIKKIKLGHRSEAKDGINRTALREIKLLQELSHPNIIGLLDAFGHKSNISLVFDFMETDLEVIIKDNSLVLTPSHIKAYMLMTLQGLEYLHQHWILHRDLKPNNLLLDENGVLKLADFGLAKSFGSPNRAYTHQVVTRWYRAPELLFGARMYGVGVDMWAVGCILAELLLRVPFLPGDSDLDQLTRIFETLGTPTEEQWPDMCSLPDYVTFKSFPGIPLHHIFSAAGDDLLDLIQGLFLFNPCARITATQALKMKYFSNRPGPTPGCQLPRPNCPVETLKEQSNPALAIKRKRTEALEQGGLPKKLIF
Sequence of CDK7 (Homo sapiens, UniProt P50613) (P51946 whole entry partner): as the sequence (P51946 whole entry partner) above
Sequence of CDK7 (Homo sapiens, UniProt P50613) (P51948 whole entry partner): as the sequence (P51948 whole entry partner) above
Description: The CDK7 enzyme inhibition assay was conducted using the ADP‐Glo Kinase Assay (VA7402, Promega Corporation, Madison, WI, USA) according to the manufacturer's instructions. In this assay, CDK7 catalyzes the conversion of ATP to ADP. The reaction was terminated by adding the ADP‐Glo reagent, which depletes residual ATP. Subsequently, the kinase detection reagent was introduced to convert ADP back into ATP, which was then measured via a luciferase reaction, producing luminescence. The assay was carried out at room temperature, using DMSO as the solvent for the tested compounds. Each compound was tested at eight different concentrations. […] Luminescence was recorded using a BioTek plate reader (BioTek Instruments Inc.), as previously described.^[ [39] ^] The percentage of enzyme inhibition was determined for each compound at different concentrations, and mean IC50 values of triplicate experiments were calculated using GraphPad Prism.

[7] = SRB, 72 h of treatment, average ± SEM, triplicate
[8] = PANC-1, SRB, 72 h of treatment, average ± SEM, triplicate

Row | SMILES | IC50 (PATU‐T [1]; [7]) [nM] | IC50 (SUIT 2.28; [7]) [nM] | IC50 (PANC‐1; [8]) [nM] | IC50 (PATU‐T [1]; 72 h) [nM] | IC50 (SUIT 2.28; 72 h) [nM] | IC50 (PANC‐1; PANC-1, 72 h) [nM] | further results
1 | Nc1ncnc2cc(-c3c[nH]c4ccc(Cl)cc34)nn12 [Compound 1c, 7‐(5‐Chloro‐1H‐indol‐3‐yl)pyrazolo[1,5‐a][1,3,5]triazin‐4‐amine] | 1900 ± 600 | 400 ± 100 | 8700 ± 1500 |  |  |  | 
2 | Nc1ncnc2cc(-c3c[nH]c4ccc(F)cc34)nn12 [Compound 1d, 7‐(5‐Fluoro‐1H‐indol‐3‐yl)pyrazolo[1,5‐a][1,3,5]triazin‐4‐amine] | 3500 ± 700 | 600 ± 100 | 9600 ± 800 |  |  |  | 
3 | COc1ccc2[nH]cc(-c3cc4ncnc(N)n4n3)c2c1 [Compound 1e, 7‐(5‐Methoxy‐1H‐indol‐3‐yl)pyrazolo[1,5‐a][1,3,5]triazin‐4‐amine] | 4700 ± 900 | 500 ± 100 | 8800 ± 1200 |  |  |  | inhibition of cell migration (PATU‐T [2]): greatest inhibitory effect
4 | Cn1cc(-c2cc3ncnc(N)n3n2)c2cc(Cl)ccc21 [Compound 1h, 7‐(5‐Chloro‐1‐methyl‐1H‐indol‐3‐yl)pyrazolo[1,5‐a][1,3,5]triazin‐4‐amine] |  |  |  | 2000 ± 300 | 1600 ± 300 | 3100 ± 700 | 
5 | Cn1cc(-c2cc3ncnc(N)n3n2)c2cc(F)ccc21 [Compound 1i, 7‐(5‐Fluoro‐1‐methyl‐1H‐indol‐3‐yl)pyrazolo[1,5‐a][1,3,5]triazin‐4‐amine] |  |  |  | 5500 ± 1100 | 500 ± 100 | 2200 ± 400 | 
6 | COc1ccc2c(c1)c(-c1cc3ncnc(N)n3n1)cn2C [Compound 1j, 7‐(5‐Methoxy‐1‐methyl‐1H‐indol‐3‐yl)pyrazolo[1,5‐a][1,3,5]triazin‐4‐amine] |  |  |  | 4700 ± 800 | 500 ± 100 | 2400 ± 500 | 
7 | CC(C)c1ccccc1CNc1nc(OC2CCN(C)CC2)nc2c(C(C)C)cnn12 [LDC3140] |  |  |  |  |  |  | IC50 (CDK7 [3]): < 5 nM
8 | CC(C)c1cnn2c(NCc3ccccc3-n3cccn3)nc(OC3CCCNC3)nc12 (stereo not shown) [LDC4297, reference compound] | 30 ± 10 | 30 ± 10 | 20 ± 10 |  |  |  | IC50 (PDAC cell lines): 20 to 400 nM; IC50 (CDK7 [3]): < 5 nM; IC50 (PSC): 110 ± 20 nM; IC50 (PATU‐T GR): 450 ± 90 nM; IC50 (PDAC3): 100 ± 20 nM; p‐CDK7 expression vs untreated [4]: significant decrease in p‐CDK7 levels; p‐CDK7 expression vs untreated [5]: significant decrease in p‐CDK7 levels; IC50 (CDK7 [6]): 7.5 nM
